Read-outs that look alike come from different tables or passages of the source.
Experiments:
[1] = system: HIV-1 infection of TZM-bl cells; test: HIV-1 infectivity enhancement assay, β-galactosidase luminescence; format: cell-based; conditions: for Log10 Inf. rel. to EF-C: log10 of HIV-1 infection of TZM-bl cells relative to EF-C, Fig S15 source data, asymmetric std dev errors
[2] = format: physicochemical; conditions: STD prep
[3] = format: physicochemical; conditions: for Tht category (> 1.5 to blank = +): category 1/0
Procedure, shortened: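 Fibrils (1 mg/mL solution) were mixed with 50 µM ThT in PBS for 15 min at RT, and fluorescence was read at λex 440/λem 488 nm against a PBS blank, as a triplicate mean ± SD. Zeta potential came from electrophoretic mobility (Smoluchowski) after 1 d aggregation at 1 mg/mL in PBS pH 7.4, diluted into 1 mM KCl.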

[4] = Feb2021, 1.3 µM value relative to virus only (0 µM)
[5] = Feb2021, log10 of infectivity relative to EF-C
[6] = Feb2021, n-fold infectivity relative to EF-C
[7] = Feb2021, unrounded values of the 1.3 µM column
[8] = Feb2021 run, infectivity n-fold relative to virus alone
[9] = Feb2021 run, log10 of infectivity relative to EF-C
[10] = Feb2021 run, n-fold infectivity relative to EF-C
[11] = infectivity class (low / medium / high) of each library peptide, main list in c1-c6, same classes repeated in sub-lists of sequences containing the hydrophobicity/charge patterns P+,H0,P+,H0,P0,H0,P0, P+,H0,P0,H0,P0,H0,P0, P+,H0,P0,H0
[12] = infectivity class (low / medium / high) of the peptide in the sequence-pattern analysis, Fig. S22-A4, class limits not given
[13] = relative to blank 42.1851851851852 a.u.
[14] = Feb2021, Log10 of infectivity relative to EF-C
[15] = Feb2021, n-fold enhancement relative to EF-C
[16] = ThT fluorescence relative to blank (42.1851851851852 a.u.)

Substance	n-fold to virus (Feb2021) [1, 4]	Rel-to EFC (Feb-2021) [1, 6]	Absolute Infectivity / RLU /s (Feb2021) [1, 7] [RLU /s]	n-fold to virus (Feb2021) [1, 8]	Log10 of Rel to EFC (Feb2021) [1, 9]	Rel-to EFC (Feb-2021) [1, 10]	infectivity [1, 11]	infectivity [1, 12]	Log10 Inf. rel. to EF-C [1]	TEM: 1= fibrils, 0= aggregates (micelle), 0.5 = aggregates and fibrils, -1 = nothing obersved, STD prep [2]	Tht category (> 1.5 to blank = +) [3]	Tht rel to blank (42.1851851851852) [3, 13]	Log10 of Rel to EFC (Feb2021) [1, 14]	Rel-to EFC (Feb-2021) [1, 15]	Tht rel to blank (42.1851851851852) [3, 16]	also measured
CKFKFQFNMW [KB14]	40.34	0.9602	21516.66667	40.34	-0.01766	0.9602	high	high	-0.01766	1	1 (ThT. Cat is 1, if Rel. ThT >2)	6.314				Log10 of Rel to EFC (Feb2021) [1, 5]: -0.01766
QCKFKFQFNM [CK8]	21.52	0.5121	16353.33333	21.52	-0.2906	0.5121	medium		-0.2906	1	1 (ThT. Cat is 1, if Rel. ThT >2)	2.317	-0.2906	0.5121	2.317	
QCKIKIQINM [CK2]	16.64	0.3959	15250	16.64	-0.4024	0.3959	medium		-0.4024	1	1 (ThT. Cat is 1, if Rel. ThT >2)	2.548	-0.4024	0.3959	2.548	
QCKFKFQF [CK9]	32.23	0.767	20303.33333	32.23	-0.1152	0.767		high	-0.1152	1	1 (ThT. Cat is 1, if Rel. ThT >2)	2.014	-0.1152	0.767	2.014	
QCKIKQII [CK6]		0.006472		0.2719	-2.189	0.006472	low		-2.189	1	1 (ThT. Cat is 1, if Rel. ThT >2)	2.961	-2.189	0.006472	2.961	Absolute Infectivity / RLU /s (Feb2021) ([1]; Feb2021, figures match the 1.3 µM column): 206.7 RLU /s; n-fold to virus (Feb2021) ([1]; Feb2021, infectivity relative to virus only): 0.2719; Tht rel to blank (42.1851851851852) ([3]; ThT fluorescence relative to blank, blank = 42.1851851851852): 2.961
CKWKWQW [KB4]	10.67	0.254	6760				medium		-0.5951	0	0 (ThT-inactive (N-Fold <2))	1.321				Log10 of Rel to EFC (Feb2021) [1, 5]: -0.5951; Rel-to EFC ([1]; Fig S8 panels B, D, infectivity enhancement relative to EF-C): 0.254; n-fold to virus ([1]; Fig S8 panels B, D, infectivity n-fold relative to virus alone): 10.67
KIKIKIQINMWQ [VH9]							high	high	-0.1048				-0.1048	0.7855	1.586	

— paper PMC10447463, “Data-mining unveils structure–property–activity correlation of viral infectivity enhancing self-assembling peptides” (Nature Communications, 2023)
